Test results as given in ChEMBL document CHEMBL1201862, “PubChem BioAssay data set” (2004).
One block for each molecule: values may come before it. The source made the active and inactive calls.

Tests used:
[1] = Counterscreen for AddAB inhibitors: absorbance-based bacterial cell-based high throughput dose response assay for inhibitors of bacterial viability. [Related pubchem assays (depositor defined):AID435030, AID449728, AID449731, AID488942, AID488955, AID488956]; format: functional
[2] = target: Matrix metalloproteinase-14 (Homo sapiens, UniProt P50281); experiment: Dose Response confirmation of uHTS hits for a small molecule inhibitors of MT1-MMP activation in a fluorescence assay set 2.; format: functional
[3] = target: T1, Sentrin-specific protease 6 (Homo sapiens, UniProt Q9GZR1); experiment: SAR Analysis of small molecule inhibitors of Sentrin-specific protease 6 (SENP6) using a Luminescent assay. [Related pubchem assays (depositor defined):AID2582, AID2599]; format: functional
T1 sequence (Q9GZR1 whole entry): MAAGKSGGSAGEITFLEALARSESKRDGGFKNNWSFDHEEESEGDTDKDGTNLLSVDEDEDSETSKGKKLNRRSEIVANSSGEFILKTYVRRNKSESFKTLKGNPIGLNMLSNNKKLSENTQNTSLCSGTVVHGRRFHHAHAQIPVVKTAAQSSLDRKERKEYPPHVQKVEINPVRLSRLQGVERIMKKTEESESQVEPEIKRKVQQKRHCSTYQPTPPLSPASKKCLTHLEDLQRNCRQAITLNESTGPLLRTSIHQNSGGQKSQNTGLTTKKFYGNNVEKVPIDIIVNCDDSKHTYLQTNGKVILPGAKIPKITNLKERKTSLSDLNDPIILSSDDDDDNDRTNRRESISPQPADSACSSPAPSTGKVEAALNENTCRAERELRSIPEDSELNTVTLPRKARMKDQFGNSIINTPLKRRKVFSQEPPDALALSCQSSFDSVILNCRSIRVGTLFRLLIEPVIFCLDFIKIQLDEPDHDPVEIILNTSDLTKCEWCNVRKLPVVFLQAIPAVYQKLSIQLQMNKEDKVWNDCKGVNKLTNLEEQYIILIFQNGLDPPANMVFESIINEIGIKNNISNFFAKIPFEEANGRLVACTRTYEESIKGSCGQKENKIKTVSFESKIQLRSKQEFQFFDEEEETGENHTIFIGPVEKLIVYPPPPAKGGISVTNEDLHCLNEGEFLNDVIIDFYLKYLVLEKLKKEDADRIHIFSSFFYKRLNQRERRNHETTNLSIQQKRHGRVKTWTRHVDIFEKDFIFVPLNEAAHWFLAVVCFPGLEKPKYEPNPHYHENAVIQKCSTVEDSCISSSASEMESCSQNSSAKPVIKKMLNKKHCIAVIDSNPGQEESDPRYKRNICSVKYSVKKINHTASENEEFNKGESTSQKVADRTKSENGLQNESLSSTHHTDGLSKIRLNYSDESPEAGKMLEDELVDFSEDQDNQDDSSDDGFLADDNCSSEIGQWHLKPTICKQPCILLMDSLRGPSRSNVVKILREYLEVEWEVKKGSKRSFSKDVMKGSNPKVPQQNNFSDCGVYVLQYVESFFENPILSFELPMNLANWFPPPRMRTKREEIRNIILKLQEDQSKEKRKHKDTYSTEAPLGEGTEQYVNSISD

[4] = target: T2, Sentrin-specific protease 8 (Homo sapiens, UniProt Q96LD8); format: functional;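 further: kinetic enzyme assay of SENP8 cleaving a Nedd8 protein substrate, dose-response confirmation of screening hits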
T2 sequence (Q96LD8 whole entry): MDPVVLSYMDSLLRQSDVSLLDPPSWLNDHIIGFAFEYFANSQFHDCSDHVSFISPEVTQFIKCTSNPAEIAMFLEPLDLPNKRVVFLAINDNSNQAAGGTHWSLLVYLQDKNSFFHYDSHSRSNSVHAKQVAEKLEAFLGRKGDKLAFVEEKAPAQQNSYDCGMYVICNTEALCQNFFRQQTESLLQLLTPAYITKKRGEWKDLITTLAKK

[5] = target: Glyceraldehyde-3-phosphate dehydrogenase (Homo sapiens, UniProt P04406)
Keap1/Nrf2 = Keap1/Nrf2 (Homo sapiens, UniProt Q14145); experiment: disruptors of Keap1 binding to Nrf2 peptide – biochemical, fluorescence polarization, cherry-picked samples, dose response (AID 588683)
[6] = target: Proto-oncogene tyrosine-protein kinase Src (Homo sapiens, UniProt P12931); format: functional;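 further: SRC entry within a kinome-wide kinase profiling panel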
[7] = target: ALK tyrosine kinase receptor (Homo sapiens, UniProt Q9UM73); format: functional;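 further: ALK tested as one member of a kinase panel screen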
[8] = target: 5'-AMP-activated protein kinase catalytic subunit alpha-1 (Homo sapiens, UniProt Q13131); format: functional
Sequence of 5'-AMP-activated protein kinase catalytic subunit alpha-1 (Q13131 whole entry): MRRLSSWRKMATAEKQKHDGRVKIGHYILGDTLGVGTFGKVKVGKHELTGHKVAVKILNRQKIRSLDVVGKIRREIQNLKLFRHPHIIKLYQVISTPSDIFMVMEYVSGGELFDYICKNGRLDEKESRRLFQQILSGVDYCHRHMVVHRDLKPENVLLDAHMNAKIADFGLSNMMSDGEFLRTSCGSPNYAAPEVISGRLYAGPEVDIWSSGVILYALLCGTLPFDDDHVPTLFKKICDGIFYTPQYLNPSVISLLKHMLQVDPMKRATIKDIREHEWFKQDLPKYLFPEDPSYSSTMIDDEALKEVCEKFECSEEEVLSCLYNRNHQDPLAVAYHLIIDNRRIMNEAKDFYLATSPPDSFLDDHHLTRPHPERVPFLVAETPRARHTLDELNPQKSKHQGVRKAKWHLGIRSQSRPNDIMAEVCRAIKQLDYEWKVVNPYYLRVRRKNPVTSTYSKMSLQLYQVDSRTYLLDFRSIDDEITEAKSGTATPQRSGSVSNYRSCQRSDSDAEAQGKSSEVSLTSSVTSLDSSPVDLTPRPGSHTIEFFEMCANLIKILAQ

[9] = target: Calcium/calmodulin-dependent protein kinase type II subunit gamma (Homo sapiens, UniProt Q13555); format: functional
Sequence of Calcium/calmodulin-dependent protein kinase type II subunit gamma (Q13555 whole entry): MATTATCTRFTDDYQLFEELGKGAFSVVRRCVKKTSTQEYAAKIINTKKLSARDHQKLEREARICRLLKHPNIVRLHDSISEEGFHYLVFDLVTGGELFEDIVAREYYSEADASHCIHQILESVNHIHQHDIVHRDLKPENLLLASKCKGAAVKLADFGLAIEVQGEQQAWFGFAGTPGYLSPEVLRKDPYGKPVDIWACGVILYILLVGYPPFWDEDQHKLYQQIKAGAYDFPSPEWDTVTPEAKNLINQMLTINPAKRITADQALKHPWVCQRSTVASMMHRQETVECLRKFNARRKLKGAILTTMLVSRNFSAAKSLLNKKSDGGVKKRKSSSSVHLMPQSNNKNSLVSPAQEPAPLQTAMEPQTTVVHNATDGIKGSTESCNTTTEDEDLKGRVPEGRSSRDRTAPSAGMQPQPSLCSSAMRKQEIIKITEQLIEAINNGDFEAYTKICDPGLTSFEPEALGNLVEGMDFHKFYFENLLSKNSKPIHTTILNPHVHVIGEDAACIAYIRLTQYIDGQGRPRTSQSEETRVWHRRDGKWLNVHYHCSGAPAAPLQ

[10] = target: Protein kinase C iota type (Homo sapiens, UniProt P41743); format: functional;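 further: measured within a kinome-wide kinase panel, PRKCI as panel member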
[11] = target: Tyrosine-protein kinase BTK (Homo sapiens, UniProt Q06187); format: functional
Sequence of Tyrosine-protein kinase BTK (Q06187 whole entry): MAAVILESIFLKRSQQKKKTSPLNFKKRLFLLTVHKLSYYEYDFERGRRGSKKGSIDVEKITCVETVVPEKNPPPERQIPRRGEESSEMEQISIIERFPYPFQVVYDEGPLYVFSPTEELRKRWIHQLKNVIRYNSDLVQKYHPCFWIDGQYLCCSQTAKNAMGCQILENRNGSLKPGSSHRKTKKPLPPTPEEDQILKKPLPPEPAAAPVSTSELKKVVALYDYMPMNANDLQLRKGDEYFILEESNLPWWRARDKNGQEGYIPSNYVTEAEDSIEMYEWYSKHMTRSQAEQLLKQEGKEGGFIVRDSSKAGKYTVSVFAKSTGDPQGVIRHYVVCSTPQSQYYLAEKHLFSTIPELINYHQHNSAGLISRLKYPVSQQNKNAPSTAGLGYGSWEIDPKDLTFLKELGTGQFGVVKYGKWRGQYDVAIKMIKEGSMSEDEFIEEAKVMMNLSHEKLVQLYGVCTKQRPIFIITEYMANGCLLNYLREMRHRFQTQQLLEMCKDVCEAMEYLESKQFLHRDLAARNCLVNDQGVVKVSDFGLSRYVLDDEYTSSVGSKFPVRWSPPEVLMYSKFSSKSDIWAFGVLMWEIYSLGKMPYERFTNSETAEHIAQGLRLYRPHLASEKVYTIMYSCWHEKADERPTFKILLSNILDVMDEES

[12] = target: Tyrosine-protein kinase Lyn (Homo sapiens, UniProt P07948); format: functional;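 further: lyn as one member of a kinase panel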
Sequence of Tyrosine-protein kinase Lyn (P07948 whole entry): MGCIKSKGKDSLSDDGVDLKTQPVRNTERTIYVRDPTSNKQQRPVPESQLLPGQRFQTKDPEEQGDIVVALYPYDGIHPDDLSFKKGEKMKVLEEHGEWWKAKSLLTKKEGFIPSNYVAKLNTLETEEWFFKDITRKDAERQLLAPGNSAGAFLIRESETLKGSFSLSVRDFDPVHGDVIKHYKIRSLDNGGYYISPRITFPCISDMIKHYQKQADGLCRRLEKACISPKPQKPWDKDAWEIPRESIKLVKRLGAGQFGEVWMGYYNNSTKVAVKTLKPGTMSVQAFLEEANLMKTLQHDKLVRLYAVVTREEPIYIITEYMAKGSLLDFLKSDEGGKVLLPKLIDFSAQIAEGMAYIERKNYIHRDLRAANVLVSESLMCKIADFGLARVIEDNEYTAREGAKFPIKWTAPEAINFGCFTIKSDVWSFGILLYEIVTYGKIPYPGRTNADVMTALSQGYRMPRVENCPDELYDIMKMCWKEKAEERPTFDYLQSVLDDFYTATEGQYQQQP

[13] = target: Serine/threonine-protein kinase Chk2 (Homo sapiens, UniProt O96017); format: functional;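 further: CHEK2 entry within a kinome-wide screening panel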
Sequence of Serine/threonine-protein kinase Chk2 (O96017 whole entry): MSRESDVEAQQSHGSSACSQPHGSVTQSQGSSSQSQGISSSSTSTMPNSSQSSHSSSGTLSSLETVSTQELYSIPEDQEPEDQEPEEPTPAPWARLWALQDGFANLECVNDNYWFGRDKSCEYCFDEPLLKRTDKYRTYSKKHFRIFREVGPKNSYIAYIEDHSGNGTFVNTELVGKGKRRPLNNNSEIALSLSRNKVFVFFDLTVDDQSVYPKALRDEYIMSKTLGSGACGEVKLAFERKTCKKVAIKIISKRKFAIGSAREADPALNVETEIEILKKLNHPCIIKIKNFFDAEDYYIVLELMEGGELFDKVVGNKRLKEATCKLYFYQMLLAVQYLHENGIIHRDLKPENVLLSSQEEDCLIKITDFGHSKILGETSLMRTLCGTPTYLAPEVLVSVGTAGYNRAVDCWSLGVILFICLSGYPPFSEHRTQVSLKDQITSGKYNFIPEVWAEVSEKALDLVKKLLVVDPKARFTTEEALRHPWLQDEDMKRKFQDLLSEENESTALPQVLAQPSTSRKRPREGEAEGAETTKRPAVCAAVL

[14] = target: Serine/threonine-protein kinase Chk1 (Homo sapiens, UniProt O14757); format: functional;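 further: measured as one member of a kinome-wide kinase profiling panel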
Sequence of Serine/threonine-protein kinase Chk1 (O14757 whole entry): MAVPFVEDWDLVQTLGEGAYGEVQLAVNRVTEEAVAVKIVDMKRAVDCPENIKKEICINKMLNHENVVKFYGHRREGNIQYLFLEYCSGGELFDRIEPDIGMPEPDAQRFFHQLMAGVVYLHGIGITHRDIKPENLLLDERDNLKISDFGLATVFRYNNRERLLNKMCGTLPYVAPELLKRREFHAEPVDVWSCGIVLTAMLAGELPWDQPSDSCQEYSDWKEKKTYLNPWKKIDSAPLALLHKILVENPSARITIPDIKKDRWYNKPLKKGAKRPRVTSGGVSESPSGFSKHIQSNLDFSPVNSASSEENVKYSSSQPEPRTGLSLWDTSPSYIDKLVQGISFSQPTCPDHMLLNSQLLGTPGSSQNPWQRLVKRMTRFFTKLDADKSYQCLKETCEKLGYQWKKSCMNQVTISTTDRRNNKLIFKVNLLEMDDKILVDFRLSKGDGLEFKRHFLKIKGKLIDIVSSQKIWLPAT

[15] = target: Proto-oncogene tyrosine-protein kinase receptor Ret (Homo sapiens, UniProt P07949); format: functional;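 further: measured within a kinome-wide profiling panel, RET as the panel member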
[16] = target: STE20-like serine/threonine-protein kinase (Homo sapiens, UniProt Q9H2G2); format: functional
[17] = target: Megakaryocyte-associated tyrosine-protein kinase (Homo sapiens, UniProt P42679); format: functional;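 further: affinity measured as one member of a kinase panel (Navigating the Kinome) against MATK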
Sequence of Megakaryocyte-associated tyrosine-protein kinase (P42679 whole entry): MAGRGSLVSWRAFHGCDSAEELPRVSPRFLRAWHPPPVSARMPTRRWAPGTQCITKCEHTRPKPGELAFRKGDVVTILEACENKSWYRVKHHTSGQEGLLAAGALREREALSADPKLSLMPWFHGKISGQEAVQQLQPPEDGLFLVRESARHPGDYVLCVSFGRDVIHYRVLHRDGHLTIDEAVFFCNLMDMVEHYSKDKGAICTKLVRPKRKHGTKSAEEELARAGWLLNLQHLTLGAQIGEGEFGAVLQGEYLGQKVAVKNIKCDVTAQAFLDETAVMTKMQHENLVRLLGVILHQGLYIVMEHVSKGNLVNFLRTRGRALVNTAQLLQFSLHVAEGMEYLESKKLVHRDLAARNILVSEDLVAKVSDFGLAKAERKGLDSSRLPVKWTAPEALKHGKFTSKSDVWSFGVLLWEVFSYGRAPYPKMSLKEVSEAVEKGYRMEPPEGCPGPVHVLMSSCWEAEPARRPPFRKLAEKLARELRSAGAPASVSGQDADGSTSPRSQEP

[18] = target: Tyrosine-protein kinase receptor UFO (Homo sapiens, UniProt P30530); format: functional
Sequence of Tyrosine-protein kinase receptor UFO (P30530 whole entry): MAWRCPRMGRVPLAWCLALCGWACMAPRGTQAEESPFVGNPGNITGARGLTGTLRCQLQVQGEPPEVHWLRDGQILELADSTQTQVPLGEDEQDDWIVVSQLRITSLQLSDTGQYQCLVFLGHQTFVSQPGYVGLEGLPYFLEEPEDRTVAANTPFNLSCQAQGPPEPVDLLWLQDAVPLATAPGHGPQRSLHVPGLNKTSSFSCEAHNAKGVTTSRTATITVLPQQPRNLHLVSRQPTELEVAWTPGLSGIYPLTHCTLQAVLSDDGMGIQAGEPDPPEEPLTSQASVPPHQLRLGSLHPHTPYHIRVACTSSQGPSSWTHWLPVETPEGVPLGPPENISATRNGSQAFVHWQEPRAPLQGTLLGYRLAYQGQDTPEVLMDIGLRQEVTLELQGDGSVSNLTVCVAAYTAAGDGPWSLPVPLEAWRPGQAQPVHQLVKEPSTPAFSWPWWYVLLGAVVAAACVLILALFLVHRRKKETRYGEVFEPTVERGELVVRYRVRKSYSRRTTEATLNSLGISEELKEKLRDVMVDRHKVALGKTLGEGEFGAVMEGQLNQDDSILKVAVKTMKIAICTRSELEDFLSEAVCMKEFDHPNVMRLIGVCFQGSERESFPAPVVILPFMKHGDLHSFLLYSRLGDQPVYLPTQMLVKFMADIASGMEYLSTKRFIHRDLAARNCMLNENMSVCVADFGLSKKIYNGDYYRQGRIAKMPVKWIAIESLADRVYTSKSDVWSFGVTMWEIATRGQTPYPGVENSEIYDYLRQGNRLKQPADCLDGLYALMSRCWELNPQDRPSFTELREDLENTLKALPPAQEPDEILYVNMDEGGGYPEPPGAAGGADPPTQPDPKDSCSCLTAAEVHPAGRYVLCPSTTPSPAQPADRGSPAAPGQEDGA

[19] = target: Protein-tyrosine kinase 2-beta (Homo sapiens, UniProt Q14289); format: functional
[20] = target: T3, Carboxy-terminal domain RNA polymerase II polypeptide A small phosphatase 1 (Homo sapiens, UniProt Q9GZU7); experiment: CTDSP1 inhibitors, concentration-response, biochemical, absorbance readout, ultra-high-throughput screen actives (AID 540297); format: functional
T3 sequence (Q9GZU7 whole entry): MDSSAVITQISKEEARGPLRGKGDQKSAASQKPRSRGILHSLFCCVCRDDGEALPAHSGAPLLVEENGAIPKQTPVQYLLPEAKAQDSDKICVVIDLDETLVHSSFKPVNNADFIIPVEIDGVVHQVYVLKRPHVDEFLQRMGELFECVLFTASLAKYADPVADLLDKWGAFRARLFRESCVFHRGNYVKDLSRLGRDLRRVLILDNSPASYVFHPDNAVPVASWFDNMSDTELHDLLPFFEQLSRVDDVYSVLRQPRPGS

Structure (SMILES): Oc1ccc(N=Nc2c(O)ccc3ccccc23)cc1
IC50 [1]: > 118000 nM (inactive) | IC50 [2]: 22800 nM (inactive)

Structure (SMILES): O=C(CCc1ccccc1)NNc1cc(N2CCCCC2)nc(N2CCCCC2)n1
IC50 [3]: 35700 nM (active) | IC50 [4]: 1010 nM (active)

Structure (SMILES): O=C(O)C1Nc2c(O)cc(Cl)c([N+](=O)[O-])c2C2C=CCC12 (stereo not drawn)
IC50 [5]: 37800 nM (active) | AC50 (Keap1/Nrf2): > 52000 nM (inactive)

Ki [6]: > 2000 nM (inactive) | Ki [7]: > 1260 nM (inactive) | Ki [8]: 10 nM (active) | Ki [9]: 3.98 nM (active) | pKi [9]: 8.4 | Ki [10]: 1000 nM (active) | Ki [11]: > 1260 nM (inactive) | Ki [12]: > 1580 nM (inactive) | Ki [13]: 631 nM (active) | Ki [14]: 6310 nM (active) | Ki [15]: 1000 nM (active) | Ki [16]: 1000 nM (active) | Ki [17]: > 2000 nM (inactive) | Ki [18]: 158 nM (active) | pKi [18]: 6.8 | Ki [19]: 501 nM (active)
Structure (SMILES): Cc1n[nH]c2ccc(-c3cncc(OCC(N)Cc4cccc(Cl)c4)c3)cc12 (stereo not drawn)

IC50 [20]: 16700 nM (active)
Structure (SMILES): O=C1N=C(NS(=O)(=O)Cc2ccccc2)S/C1=C1\C(=O)Nc2ccccc21
